In ChEMBL document CHEMBL2203252, “Brominated aromatic furanones and related esters from the ascidian Synoicum sp” (J Nat Prod, 2012) one finds IC50, MIC and CC50 data, which are given here for eleven molecules.

Converted amounts (≈) assume the structure as drawn.

Broadly, the IC50 is the midpoint of a concentration-inhibition curve. Lower therefore signals greater potency. In general, MIC refers to the smallest concentration in the dilution series that meets the test's criterion for growth inhibition.

One data set has as its target Isocitrate lyase (Candida albicans, UniProt Q9P8Q7). Briefly: Inhibition of Candida albicans ATCC 10231 isocitrate lyase by spectrophotometric analysis.
A short description of data set [1]: Inhibition of SortaseA.
In another data set the test system is Proteus hauseri. Briefly: Antimicrobial activity against Proteus hauseri NBRC 3851 after 24 hrs. Type of data set: functional. The following applies: NBRC 3851, 24 h.
In a further data set the test system is Kocuria rhizophila. Briefly: Antimicrobial activity against Kocuria rhizophila NBRC 12708 after 24 hrs. Type of data set: functional. The following applies: NBRC 12708, 24 h.
Data set [2] in a line: Cytotoxicity against human K562 cells after 48 hrs by MTT assay. Type of data set: cell-based. The following applies: read-out: LC50. (In general: Tetrazolium dyes change colour on reduction, which living cells bring about.)
A further data set deals with Escherichia coli. The data set can be described thus: Antimicrobial activity against Escherichia coli ATCC 35270 after 24 hrs. Type of data set: functional. The following applies: ATCC 35270, 24 h.
The next data set relates to Bacillus spizizenii. The data set can be described thus: Antimicrobial activity against Bacillus subtilis ATCC 6633 after 24 hrs. Type of data set: functional. The following applies: ATCC 6633, 24 h.
Another data set concerns Salmonella enterica. The data set can be described thus: Antimicrobial activity against Salmonella enterica ATCC 14028 after 24 hrs. The following applies: ATCC 14028, 24 h. Type of data set: functional.
For the next data set, the system named is Staphylococcus aureus. The data set can be described thus: Antimicrobial activity against Staphylococcus aureus ATCC 6538p after 24 hrs. Type of data set: functional.
Data set [3] is described as follows: Cytotoxicity against human A549 cells after 48 hrs by MTT assay. The following applies: read-out: LC50. Type of data set: cell-based.
Data set [4] is described as follows: Inhibition of Na+/K+-ATPase by fluorometric method.

Isocitrate lyase, sequence (Q9P8Q7 whole entry): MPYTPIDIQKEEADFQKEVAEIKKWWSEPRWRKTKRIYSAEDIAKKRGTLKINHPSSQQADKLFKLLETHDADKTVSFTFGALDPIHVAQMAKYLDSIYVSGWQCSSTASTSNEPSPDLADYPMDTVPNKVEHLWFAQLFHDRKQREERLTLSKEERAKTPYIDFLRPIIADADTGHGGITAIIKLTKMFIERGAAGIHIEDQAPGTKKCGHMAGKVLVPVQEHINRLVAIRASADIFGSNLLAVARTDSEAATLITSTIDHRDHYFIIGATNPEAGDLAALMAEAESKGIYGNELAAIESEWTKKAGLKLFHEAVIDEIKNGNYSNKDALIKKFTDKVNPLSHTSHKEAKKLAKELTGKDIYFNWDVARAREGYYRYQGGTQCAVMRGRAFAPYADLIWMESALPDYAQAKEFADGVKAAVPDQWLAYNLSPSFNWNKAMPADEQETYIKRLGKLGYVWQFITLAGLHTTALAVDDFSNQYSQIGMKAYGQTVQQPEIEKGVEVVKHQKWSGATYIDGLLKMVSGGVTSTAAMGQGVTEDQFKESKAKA

For `COc1ccc(C=C2OC(=O)C([C@@H](O)c3cc(Br)c(OC)c(Br)c3)=C2c2cc(Br)c(O)c(Br)c2)cc1`, the IC50 at Isocitrate lyase was above 100 µM; in data set [1], above 120 µM; in [4], 13.5 µM. For the same molecule, the MIC was 3.1 µg/mL (≈ 4.16 µM) against Proteus hauseri; 3.1 µg/mL (≈ 4.16 µM) against Kocuria rhizophila; above 100 µg/mL against Escherichia coli; 1.6 µg/mL (≈ 2.14 µM) in the data set with Bacillus spizizenii; 3.1 µg/mL (≈ 4.16 µM) against Salmonella enterica; 6.3 µg/mL (≈ 8.44 µM) in the data set with Staphylococcus aureus. The values for the CC50 at 48 h in [2] and in data set [3] were 50.8 µM and 38.5 µM, respectively.

Consider `COC(=O)C(C(=O)c1cc(Br)c(O)c(Br)c1)=C(C(=O)OC)c1cc(Br)c(O)c(Br)c1`, for which the IC50 on Isocitrate lyase was 26.3 µM; in [1], above 120 µM; in data set [4] it was 28 µM. Besides, the MIC with Proteus hauseri is 100 µg/mL (≈ 149 µM); in the data set on Kocuria rhizophila, 100 µg/mL (≈ 149 µM); against Escherichia coli, above 100 µg/mL; in the data set with Bacillus spizizenii it was 50 µg/mL (≈ 74.4 µM); against Salmonella enterica, 50 µg/mL (≈ 74.4 µM); against Staphylococcus aureus, 100 µg/mL (≈ 149 µM). Besides, the CC50 at 48 h in data set [2] was determined as 53.7 µM; in data set [3], 19.2 µM.

As for `COC(=O)C(C(=O)c1cc(Br)c(O)c(Br)c1)=C(C(=O)OC)c1ccc(O)c(Br)c1`, the IC50 against Isocitrate lyase was 47.6 µM; in data set [1], above 120 µM; in [4], 145 µM. The MIC against Proteus hauseri, against Kocuria rhizophila, with Escherichia coli, in the data set with Bacillus spizizenii, with Salmonella enterica and against Staphylococcus aureus was above 100 µg/mL in each case. In addition, the CC50 at 48 h is 49.7 µM in [2] and above 100 µM in data set [3].

Molecule `O=C(O)CC[N+](=O)[O-]` showed an IC50 against Isocitrate lyase of 53.9 µM. This counts as double-digit micromolar.

Consider `CC1(C)S[C@@H]2[C@H](NC(=O)[C@H](N)c3ccccc3)C(=O)N2[C@H]1C(=O)O` [AMPICILLIN], for which the MIC worked out at 1.6 µg/mL (≈ 4.58 µM) against Proteus hauseri; 0.4 µg/mL (≈ 1.14 µM) against Kocuria rhizophila; 6.3 µg/mL (≈ 18 µM) with Escherichia coli; 0.4 µg/mL (≈ 1.14 µM) against Bacillus spizizenii; 0.4 µg/mL (≈ 1.14 µM) against Salmonella enterica; 0.4 µg/mL (≈ 1.14 µM) in the data set on Staphylococcus aureus.

On to `O=C1O/C(=C\c2cc(Br)c(O)c(Br)c2)C(c2ccc(O)c(Br)c2)=C1C(=O)c1cc(Br)c(O)c(Br)c1` [CADIOLIDE E], for which the IC50 on Isocitrate lyase turned out to be 8.9 µM; in data set [1] it was 78.8 µM; in [4], 2.5 µM. The MIC in the data set on Proteus hauseri is 3.1 µg/mL (≈ 3.9 µM); with Kocuria rhizophila, 0.8 µg/mL (≈ 1.01 µM); in the data set with Escherichia coli, above 100 µg/mL; in the data set on Bacillus spizizenii, 1.6 µg/mL (≈ 2.01 µM); in the data set with Salmonella enterica it was 1.6 µg/mL (≈ 2.01 µM); against Staphylococcus aureus, 3.1 µg/mL (≈ 3.9 µM). Further, the CC50 at 48 h in [2] is above 100 µM; in data set [3], 40.4 µM.

In the case of `COc1c(Br)cc([C@H](O)C2=C(c3ccc(O)c(Br)c3)/C(=C/c3ccc(O)c(Br)c3)OC2=O)cc1Br` [CADIOLIDE G], the IC50 on Isocitrate lyase is 49.8 µM; in data set [1] it was above 120 µM; in [4], 10.3 µM. The MIC against Proteus hauseri is 3.1 µg/mL (≈ 4.23 µM); against Kocuria rhizophila, 3.1 µg/mL (≈ 4.23 µM); in the data set on Escherichia coli it was above 100 µg/mL; with Bacillus spizizenii, 12.5 µg/mL (≈ 17.1 µM); in the data set with Salmonella enterica, 0.8 µg/mL (≈ 1.09 µM); in the data set on Staphylococcus aureus it was 3.1 µg/mL (≈ 4.23 µM). The CC50 at 48 h in [2] and in data set [3] was above 100 µM in each case.

As for `COC(=O)C1=C(c2cc(Br)c(O)c(Br)c2)C(=O)OC1=C(c1cc(Br)c(O)c(Br)c1)c1cc(Br)c(O)c(Br)c1` [CADIOLIDE I], the IC50 against Isocitrate lyase was 10.8 µM; in data set [1] it was above 120 µM; in data set [4] it was 5 µM. Also, the MIC was 6.3 µg/mL (≈ 6.97 µM) in the data set on Proteus hauseri; 0.8 µg/mL (≈ 0.885 µM) in the data set on Kocuria rhizophila; above 100 µg/mL in the data set on Escherichia coli; 0.8 µg/mL (≈ 0.885 µM) against Bacillus spizizenii; 1.6 µg/mL (≈ 1.77 µM) against Salmonella enterica; 0.8 µg/mL (≈ 0.885 µM) with Staphylococcus aureus. Also, the CC50 at 48 h in [2] amounted to 51.2 µM; in data set [3] it was 52.7 µM.

As to `COc1cccc2c1C(=O)c1c(O)c3c(c(O)c1C2=O)C[C@@](O)(C(=O)CO)C[C@@H]3O[C@H]1C[C@H](N)[C@H](O)[C@H](C)O1` [DOXORUBICIN], the CC50 at 48 h came to 4.7 µM in data set [2] and 1.7 µM in data set [3].

`C[C@@H]1O[C@@H](O[C@H]2C[C@@H](O)[C@]3(CO)[C@H]4[C@H](O)C[C@]5(C)[C@@H](C6=CC(=O)OC6)CC[C@]5(O)[C@@H]4CC[C@]3(O)C2)[C@H](O)[C@H](O)[C@H]1O` [OUABAIN] showed an IC50 in data set [4] of 5.8 µM.

Molecule Para-Hydroxymercuribenzoic acid registered an IC50 in data set [1] of 106 µM.
